Experiments:
U-937 = assay: Inhibition of necroptosis in human U-937 cells; type: functional, cell-based
[1] = biological target: T1, Receptor-interacting serine/threonine-protein kinase 1 (Homo sapiens, UniProt Q13546); assay: Inhibition of human RIPK1 assessed as inhibition constant by ADP-Glo Kinase assay
T1 sequence (Q13546 whole entry): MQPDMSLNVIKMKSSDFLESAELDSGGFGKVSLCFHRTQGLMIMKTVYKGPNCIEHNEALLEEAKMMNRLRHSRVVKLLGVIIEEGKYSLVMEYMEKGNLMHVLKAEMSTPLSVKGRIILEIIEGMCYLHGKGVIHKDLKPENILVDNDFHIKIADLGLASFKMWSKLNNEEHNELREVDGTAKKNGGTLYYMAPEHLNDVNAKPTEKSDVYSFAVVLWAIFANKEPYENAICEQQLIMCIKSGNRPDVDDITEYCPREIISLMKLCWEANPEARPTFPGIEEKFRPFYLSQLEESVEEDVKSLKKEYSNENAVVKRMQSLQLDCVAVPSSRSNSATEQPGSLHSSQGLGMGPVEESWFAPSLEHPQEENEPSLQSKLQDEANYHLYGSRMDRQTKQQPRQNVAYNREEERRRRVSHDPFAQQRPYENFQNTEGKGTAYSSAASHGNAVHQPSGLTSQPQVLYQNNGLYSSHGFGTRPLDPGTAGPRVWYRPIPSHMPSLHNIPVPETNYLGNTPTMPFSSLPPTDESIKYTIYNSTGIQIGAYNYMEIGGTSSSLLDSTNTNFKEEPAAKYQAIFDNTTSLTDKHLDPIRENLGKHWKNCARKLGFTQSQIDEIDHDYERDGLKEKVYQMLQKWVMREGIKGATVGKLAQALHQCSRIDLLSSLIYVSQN

[2] = biological target: Mitogen-activated protein kinase kinase kinase 9 (Homo sapiens) (UniProt P80192); assay: Inhibition of MLK1 (unknown origin) at 10 uM relative to control
[3] = Stability of the compound in PBS at pH 7.4 measured after 24 hrs; type: physicochemical; settings: read-out: Stability
[4] = biological target: T2, Receptor-interacting serine/threonine-protein kinase 1 (Homo sapiens) (UniProt Q13546); assay: Inhibition of RIPK1 (unknown origin) at 1 uM relative to control
T2 sequence (whole entry): T1 sequence (Q13546 whole entry)

Chain of Mitogen-activated protein kinase kinase kinase 9 (Homo sapiens) (P80192 whole entry, looked up): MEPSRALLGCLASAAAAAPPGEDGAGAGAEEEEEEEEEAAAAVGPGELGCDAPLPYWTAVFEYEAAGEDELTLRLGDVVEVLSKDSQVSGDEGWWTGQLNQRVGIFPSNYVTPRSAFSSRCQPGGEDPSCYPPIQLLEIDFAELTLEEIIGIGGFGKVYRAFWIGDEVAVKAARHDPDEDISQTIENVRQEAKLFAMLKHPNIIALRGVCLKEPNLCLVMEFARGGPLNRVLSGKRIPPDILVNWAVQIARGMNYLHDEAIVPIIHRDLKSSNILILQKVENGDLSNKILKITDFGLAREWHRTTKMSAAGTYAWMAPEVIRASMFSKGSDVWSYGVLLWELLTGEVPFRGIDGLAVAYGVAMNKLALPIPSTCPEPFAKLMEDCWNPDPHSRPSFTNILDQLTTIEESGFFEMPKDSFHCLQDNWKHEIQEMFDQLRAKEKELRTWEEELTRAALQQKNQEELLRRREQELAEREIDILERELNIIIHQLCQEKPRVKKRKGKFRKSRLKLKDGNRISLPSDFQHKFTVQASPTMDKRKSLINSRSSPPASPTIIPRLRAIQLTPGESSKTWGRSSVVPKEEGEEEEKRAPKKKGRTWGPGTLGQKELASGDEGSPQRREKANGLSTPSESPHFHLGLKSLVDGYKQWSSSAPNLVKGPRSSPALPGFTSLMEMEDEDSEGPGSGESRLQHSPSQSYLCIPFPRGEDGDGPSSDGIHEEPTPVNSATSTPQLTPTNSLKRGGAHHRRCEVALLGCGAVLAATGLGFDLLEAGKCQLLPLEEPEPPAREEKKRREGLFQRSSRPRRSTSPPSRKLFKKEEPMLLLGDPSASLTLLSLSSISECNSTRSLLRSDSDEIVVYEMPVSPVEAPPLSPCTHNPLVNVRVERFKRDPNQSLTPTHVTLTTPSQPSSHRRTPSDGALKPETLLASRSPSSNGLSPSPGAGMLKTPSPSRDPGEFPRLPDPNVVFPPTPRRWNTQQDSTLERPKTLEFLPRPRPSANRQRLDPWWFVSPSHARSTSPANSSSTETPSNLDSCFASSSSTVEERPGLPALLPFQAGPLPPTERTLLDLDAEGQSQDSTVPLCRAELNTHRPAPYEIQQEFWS

| inhibition [2] [%] | remaining at 24 h [3] [%] | inhibition [4] [%] | Compound | IC50 (U-937) [nM] | Ki [1] [nM] |
| --- | --- | --- | --- | --- | --- |
|  |  |  | CN1C(=O)C(C(=O)Nc2ncn(Cc3ccccc3)n2)CCc2ccccc21 (stereo not drawn) | 61.7 | 43.7 |
|  |  |  | CN1C(=O)C(C(=O)Nc2cn(Cc3ccccc3)cn2)CCc2ccccc21 (stereo not drawn) |  | 135 |
|  |  |  | CN1C(=O)C(C(=O)Nc2cn(Cc3ccccc3)cn2)CCc2cccnc21 (stereo not drawn) | 1100 | 214 |
| 28 |  |  | COc1cc2c(cn1)N(C)C(=O)[C@H](C(=O)Nc1ncc(Cc3ccccc3)s1)CC2 |  | 1450 |
|  |  |  | CN1C(=O)C(C(=O)Nc2ncc(Cc3ccccc3)s2)CCc2ccccc21 (stereo not drawn) | 11.2 | 1.91 |
|  |  |  | CN1C(=O)[C@@H](NC(=O)c2n[nH]c(Cc3ccccc3)n2)COc2ccccc21 [GSK2982772] | 5.89 |  |
|  |  |  | COc1cc2c(cn1)N(C)C(=O)C(C(=O)Nc1cn(Cc3ccccc3)cn1)CC2 (stereo not drawn) | 427 | 575 |
|  | 14 | 22 | CN1C(=O)C(C(=O)Nc2nc(Cc3ccccc3)n[nH]2)CCc2ccccc21 (stereo not drawn) |  |  |
|  |  |  | COc1cc2c(cn1)N(C)C(=O)C(C(=O)Nc1ncc(Cc3ccccc3)s1)CC2 (racemic) | 57.5 | 52.5 |
|  |  |  | CN1C(=O)C(C(=O)Nc2cn(Cc3ccccc3)cn2)CCc2ccncc21 (stereo not drawn) | 562 | 794 |
|  |  |  | CN1C(=O)C(C(=O)Nc2ncc(Cc3ccccc3)o2)CCc2ccccc21 (stereo not drawn) | 891 | 200 |
|  |  |  | CN1C(=O)C(C(=O)Nc2nnn(Cc3ccccc3)n2)CCc2ccccc21 (stereo not drawn) | 36.3 | 31.6 |
|  |  |  | CN1C(=O)C(C(=O)Nc2cn(Cc3ccccc3)nn2)CCc2ccccc21 (stereo not drawn) | 79.4 | 58.9 |
|  |  |  | COc1cc2c(cn1)N(C)C(=O)[C@@H](C(=O)Nc1ncc(Cc3ccccc3)s1)CC2 | 63.1 | 21.9 |
|  |  |  | CN1C(=O)C(C(=O)Nc2cn(Cc3c(F)cccc3F)cn2)CCc2ccccc21 (stereo not drawn) | 148 | 56.2 |

Source: ChEMBL document CHEMBL5625266, “Design, synthesis and biological evaluation of novel cyclic malonamide derivatives as selective RIPK1 inhibitors” (Bioorg Med Chem Lett, 2024)
